“And” between values parts separate entries of the source, which are not always exact repeats. Identical values can stand only once. “Also recorded” adds a separate entry of the source. Like-named read-outs stand apart in the source and are kept apart here. Non-standard residues stand in square brackets, D forms with d. Residues, ends and D or L forms follow the SMILES beside them. Sar = CNCC(=O)O
How the values were obtained:
[1] = system: HIV-1 (IIIB); experiment: microbe, parasite or virus in culture; details: Human immunodeficiency virus 1, IIIB, CCRF-CEM
[2] = system: HIV-1 (IIIB)
[3] = system: HIV-2 (ROD); experiment: microbe, parasite or virus in culture; assay type: cell-based; details: 2 (ROD)
Procedure: Human T-lymphocytic CEM cells (4.5×10^5 cells per ml) were suspended in fresh cell culture medium and infected with HIV-1 (IIIB and NL4.3) or HIV-2 (ROD or EHO) at 100 CCID50 (1 CCID50 being the virus dose infective for 50% of the cell cultures) per ml of cell suspension. Then, 100 μl of the infected cell suspension were transferred to microplate wells, mixed with 100 μl of appropriate (freshly prepared) dilutions of the test compounds (i.e., at final concentrations of […]), and were further incubated at 37° C. After 4 to 5 days, giant cell formation was recorded microscopically in the CEM cell cultures. […] (See Table 1).
(§1) MT-4, C8166 or CEM cells (4 to 5×10^5 cells per ml) were suspended in fresh culture medium (RPMI-1640 medium supplemented with 10% fetal bovine serum (FBS) (BioWittaker Europe, Verviers, Belgium), 2 mM L-glutamine and […] NaHCO3). Subsequently, the cells were infected with HIV-1 (IIIB) or HIV-2(ROD) at ˜100 CCID50 (1 CCID50 being the dose infective for 50% of the cell cultures) per ml of cell suspension. Then, 100 μl of the infected cell suspension were transferred to 96-well microplate wells, mixed with 100 μl of the appropriate (5-fold) dilutions of the test compounds and further incubated at 37° C. After 4 to 5 days, giant cell formation was recorded microscopically in the CEM and C8166 cell cultures. The MT-4 cell cultures were treated with trypan blue and the number of viable cells was determined.

[4] = in vitro; details: human
[5] = system: HIV-1 (NL4.3); details: read-out: EC50 HIV-1 NL3.4; CEM cell cultures, syncytia formation
Procedure: (§2) Human T-lymphocytic CEM cells (4.5×10^5 cells per ml) were suspended in fresh cell culture medium and infected with HIV-1 (IIIB and NL4.3) or HIV-2 (ROD or EHO) at 100 CCID50 (1 CCID50 being the virus dose infective for 50% of the cell cultures) per ml of cell suspension. Then, 100 μl of the infected cell suspension were transferred to microplate wells, mixed with 100 μl of appropriate (freshly prepared) dilutions of the test compounds (i.e., at final concentrations of […]), and were further incubated at 37° C. After 4 to 5 days, giant cell formation was recorded microscopically in the CEM cell cultures.

[6] = system: HIV-2 (EHO)
Procedure: as §2

[7] = system: HIV-1 (IIIB); experiment: microbe, parasite or virus in culture
Procedure: as §1

[8] = system: HIV-2(ROD); experiment: microbe, parasite or virus in culture
Procedure: as §1

[9] = system: HIV (SF2 virus); experiment: HIV infectivity assay, SF2-infected H9 cells, p24 quantification; assay type: cell-based; details: for OD1: replicates (1)-(3)
Procedure: The remaining wells were filled with sterile distilled water. The cell culture plates were incubated at 37° C. and 5% CO2. After four days the medium was changed, after eight days the medium was changed and the cells were collected. After 11 days, the infection was stopped, the cells were viewed in a 10× magnification microscope and 650 μl of each cell supernatant was collected and frozen at −80° C. for further analysis. After five more days, the supernatants were thawed and used in a conventional reverse transcriptase (RT) activity assay (e.g., Roche AMPLICOR MONITOR™) or a p24 quantification assay (e.g., Abbott Laboratories, Chicago). (See U.S. Pat. No. 6,258,932 and U.S. patent application Ser. No. 10/235,158, both of which are hereby expressly incorporated by reference in its entireties).
[…] The cells in the samples were counted and then centrifuged. The cells were then resuspended in 10 ml of RPMI 1640 (containing fetal calf serum) and either […] Metabolite X or 100 μM GPG-NH2. Uninfected control and untreated control samples were also included in the experiment. The samples were then incubated overnight at 37° C. at 5% CO2.
Then, the amount of p24 in the samples was analysed using a conventional p24 detection assay (see U.S. Pat. No. 6,258,932).
Three replicate samples (“replicates”) of uninfected samples and untreated samples were also included in the experiment as controls. The inhibition of HIV replication was monitored by quantifying the levels of p24 using a conventional detection kit.
Three replicates of unninfected samples and untreated samples were also included in the experiment as controls.

[10] = system: HIV (SF2 virus); experiment: HIV infectivity assay, SF2-infected H9 cells, visible syncytia; assay type: cell-based; details: for Visible syncytia: H9/SF2, day 11
[11] = system: HIV (SF2 virus); experiment: HIV infectivity assay, SF2-infected H9 cells, reverse transcriptase (RT) quantification in supernatant; assay type: cell-based; details: for inhibition of HIV replication, reverse transcriptase (RT) activity: cultures containing boiled fetal calf serum
[12] = read-out: EC50 against HIV-1(IIIB), CEM cell cultures, Table 2
[13] = read-out: EC50 HIV-1 IIIB, CEM cell cultures, syncytia formation, Table 1
[14] = read-out: EC50 (CEM) HIV-1 (IIIB), Table 19

Compound: CNCC(N)=O [Sarcosinamide]
- EC50 [1, 12]: > 1000 µM

Compound: NC(=O)C[C@H](N)C(N)=O [L-Asparaginamide, reference compound]
- EC50 [1, 12]: > 500 µM
- EC50 [2, 12]: > 1000 µM

Compound: NC(=O)[C@@H](N)CO [L-Serinamide]
- EC50 [1, 12]: > 1000 µM

Compound: CC(C)OC(N)C(=O)NC(=O)OCc1ccccc1 (stereo not drawn) [Example 26, α-isopropoxy-N-benzyloxycarbonylglycinamide]
- melting point: 111 to 113 °C

Compound: NCC(N)=S [Glycin-thioamide, reference compound]
- EC50 [2, 12]: > 500 µM

Compound: NC(=O)C(N)Cc1c[nH]c2ccccc12 (racemic) [DL-Tryptophanamide]
- EC50 [1, 12]: > 500 µM

Compound: NCC(=O)O [Glycine]
- EC50 [1, 12]: > 500 µM

Compound: NCC(N)C(=O)O (racemic) [DL-2,3-diaminopropionic acid]
- EC50 [1, 12]: > 1000 µM

Compound: CC(C)C[C@H](N)C(=O)O [L-Leucine]
- EC50 [1, 12]: > 500 µM

Compound: COC(N)C(=O)NC(=O)OCc1ccccc1 (stereo not drawn) [Example 22, α-methoxy-N-benzyloxycarbonylglycinamide]
- melting point: 110 to 112 °C

Compound: CNC(=O)CN [Glycine methylamide]
- EC50 [1, 12]: > 500 µM

Compound: O=C(O)[C@@H]1CCCN1 [L-Proline]
- EC50 [1, 12]: > 500 µM

Compound: NC(=O)[C@@H](N)Cc1c[nH]c2ccccc12 [L-Tryptophanamide]
- EC50 [1, 12]: > 200 µM

Compound: C[C@@H](O)[C@H](N)C(N)=O [L-Threoninamide]
- EC50 [1, 12]: > 500 µM

Compound: NCCCC[C@H](N)C(N)=O [L-Lysinamide]
- EC50 ([1]; read-out: EC50 against HIV-1(IIIB)): > 500 µM

Compound: NC(=O)[C@@H]1CCCN1 [L-Prolinamide]
- EC50 [1, 12]: > 1000 µM

Compound: NC(=O)[C@@H](N)Cc1ccc(O)cc1 [L-Tyrosinamide]
- EC50 [1, 12]: > 500 µM

Compound: N=C(N)NCCC[C@H](N)C(N)=O [L-Argininamide]
- EC50 [1, 12]: > 500 µM

Compound: CC(C)C[C@H](N)C(N)=O [L-Leucinamide]
- EC50 [1, 12]: > 500 µM

Compound: C[C@H](N)C(=O)O [L-Alanine]
- EC50 [1, 12]: > 500 µM

Compound: CC(C)[C@H](N)C(=O)Nc1ccc2ccccc2c1 [L-Val β-naphthylamide, reference compound]
- EC50 [2, 12]: > 100 µM

Compound: CCOC(=O)C(NC(=O)OCc1ccccc1)OCC (stereo not drawn) [Example 23, α-ethoxy-N-benzyloxycarbonylglycine ethyl ester]
- melting point: 66 to 68 °C

Compound: NCC(=O)CN [1,3-diaminoaceton]
- EC50 [1, 12]: > 1000 µM

Compound: NC(=O)CC[C@H](N)C(=O)N1CCC[C@H]1C(=O)NCC(N)=O [Q-PG-NH2, glutaminylprolylglycinamide] (H-Gln-Pro-Gly-NH2)
- EC50 [3]: 89 µM
- EC50 [4]: > 1500 µM
- EC50 [2, 13]: 86 µM
- EC50 [5]: 265 µM
- EC50 [6]: 82 µM

Compound: C[C@H](N)C(N)=O [L-Alaninamide]
- EC50 [1, 12]: > 500 µM

Compound: NC(=O)C(N)=O [Oxamide, Oxamide (H2NCOCONH2), reference compound]
- EC50 ([7]; Human immunodeficiency virus 1, IIIB, MT4, read-out: EC50 (MT-4) HIV-1 (IIIB)): > 500 µM
- EC50 ([8]; Human immunodeficiency virus 2, MT4, read-out: EC50 (MT-4) HIV-2 (ROD), Table 19): > 500 µM
- EC50 [1, 14]: > 500 µM

Compound: CC(C)CC(N)C(N)=O (racemic) [DL-Leucinamide]
- EC50 [1, 12]: > 500 µM

Compound: NC(=O)C[C@@H](N)C(=O)O [D-Asparagine]
- EC50 [1, 12]: > 500 µM

Compound: NCC(O)CN [1,3-diamino-2-hydroxypropane]
- EC50 [1, 12]: > 1000 µM

Compound: CNCC(=O)N1CCC[C@H]1C(=O)NCC(N)=O [SAR-PG-NH2, sarcosinylprolylglycinamide] (H-[Sar]-Pro-Gly-NH2)
- EC50 [3]: 35 ± 9.8 µM
- EC50 [4]: > 1500 µM
- EC50 [2, 13]: 31 ± 4.9 µM
- EC50 [5]: 49 µM
- EC50 [6]: 56 µM

Compound: NC(=O)[C@@H](N)Cc1ccccc1 [L-Phenylalaninamide]
- EC50 [1, 12]: > 500 µM

Compound: NC(=O)C(N)O (stereo not drawn) [Met-X, α-hydroxyglycinamide]
- OD1 ([9]; 50 μM, fetal calf serum): 1.105 and 1.895 and 2.351
- conc p24 ([9]; 50 μM, human serum): 457.33 ng/mL and 427.85 ng/mL and 261.05 ng/mL
- OD1 ([9]; 100 μM, fetal calf serum): 0.193 and 0.081 and 0.144
- inhibition of HIV replication, p24 ([9]; 100 μM, presence of fetal calf serum): effectively inhibited HIV replication
- inhibition of HIV, accumulation of p24, compared with reference ([9]; fetal calf serum): as effectively as GPG-NH2; also recorded: as effectively as G-NH2
- inhibition of HIV replication, accumulation of p24 ([9]; human serum): inhibited HIV replication in human serum
- inhibition of HIV replication, accumulation of p24 ([9]; human serum, listed as Metabolite X): effective inhibitors of HIV replication in human serum
- Visible syncytia ([10]; 100 μM in boiled RPMI++): negative
- Visible syncytia ([10]; 100 μM in normal RPMI++ (10% FCS)): negative
- Visible syncytia ([10]; 500 μM in boiled RPMI++): negative
- Visible syncytia ([10]; 500 μM in normal RPMI++ (10% FCS)): negative
- inhibition of replication and/or propagation of HIV by visual inspection ([10]; boiled fetal calf serum): effectively inhibited
- reverse transcriptase activity in treated samples ([11]; 100 μM, fetal calf serum): no reverse transcriptase activity
- inhibition of HIV replication, reverse transcriptase (RT) activity [11]: inhibited the replication of HIV
- inhibition of HIV replication, reverse transcriptase (RT) activity ([11]; listed as Metabolite X): effectively inhibited replication HIV
- concentration at which inhibition of HIV replication is virtually complete ([11]; fetal bovine serum, 10 days): ≥ 15.6 µM
- inhibition of replication of HIV ([2]; boiled fetal bovine serum or human serum samples, results the experiments will show): efficiently inhibits replication of HIV

Compound: CC(C)C[C@@H](N)C(=O)O [D-Leucine]
- EC50 [1, 12]: > 1000 µM

Compound: NCCN [Ethylene diamine]
- EC50 [1, 12]: > 1000 µM

Compound: CC(C)(C)OC(=O)NC(=O)C(N)OCc1ccccc1 (stereo not drawn) [Example 20, α-benzyloxy-N-tert-butoxycarbonylglycinamide]
- melting point: 115 to 120 °C

Compound: NC(=O)CO [Glycolamide, Glycolamide (HO—CH2—CO—NH2), reference compound]
- EC50 ([7]; read-out: EC50 (MT-4) HIV-1 (IIIB), Table 19): > 500 µM
- EC50 ([8]; read-out: EC50 (MT-4) HIV-2 (ROD), Table 19): > 500 µM
- EC50 [2, 14]: > 500 µM

Compound: CC(C)[C@H](N)C(N)=O [L-Valinamide]
- EC50 [1, 12]: > 500 µM

Compound: CSCC[C@H](N)C(N)=O [L-Methioninamide]
- EC50 [1, 12]: > 500 µM

Compound: CCOC(N)C(=O)NC(=O)OCc1ccccc1 (stereo not drawn) [Example 25, α-ethoxy-N-benzyloxycarbonylglycinamide]
- melting point: 119 to 121 °C

Compound: CC[C@H](C)[C@H](N)C(N)=O [L-Isoleucinamide]
- EC50 [1, 12]: > 500 µM

Compound: NC(=O)C(N)Cc1ccccc1 (racemic) [DL-Phenylalaninamide]
- EC50 [1, 12]: > 1000 µM
